Data reported in US6369101B1, “Therapeutic method to treat herpes virus infection” (Regents of the University of Minnesota, priority 1999, dated 2002).
In brackets after ≈: the same amount, converted by molar mass. Entries after “also recorded” stand apart in the source; their conditions may differ.

Tests used:
HSV-2 strain MS = test: CPE inhibition assay, HSV-2 MS in human foreskin fibroblast cells; assay type: cell-based, herpes simplex virus type 2; on Qualitative CPE at 2.0 ml dose HSV-2 MS: key: +++ = Complete cytopathic effect; ++ = Moderate cytopathic effect; + = Minimum cytopathic effect; − = No cytopathic effect
Procedure: (§1) Stock solutions of the compounds used for the testing of antiviral activity against HSV-1 and HSV-2 were prepared in distilled water, filtered through 0.2 μm filter (Acrodisco®, Gelman Sciences, USA) and stored at room temperature until used.
(§2) Human laryngeal epithelial carcinoma cells (HEp-2, ATCC, Rockville, Md.) were used for testing of antiviral compounds by cytopathic effect (CPE) inhibition and plaque reduction assay. Primary human foreskin fibroblast cells (HFF) obtained from Dr. E. R. Kern (Department of Pediatrics, University of Alabama Medical School, 309 Bevill Biomedical Research Building, 845 19th Street South, Birmingham, Ala., 35294-2170), were used for cytopathic effect (CPE) inhibition assay. HEp-2, African green monkey kidney cells (Vero, ATCC), HFF and primary rabbit kidney cells were used to determine the cytotoxic effect of compounds of formula I. These cells were propagated in Dulbeco's modified Eagle's medium (DMEM) (Sigma, USA) supplemented with 10% inactivated fetal calf serum (FCS), 25 mM HEPES, 0.2% sodium bicarbonate and 1% penicillin/-streptomycin at 37° C. in the presence of 5% CO2.
(§3) The antiviral activity of the test compounds was determined against HSV-1 strain F, HSV-2 strain G (ATCC), HSV-1 strain E-377 and HSV-2 strain MS (Dr. E. R. Kern, see above), CMV strain AD 169 (NIH), HCMV (NIH), MCMV (NIH), and VZV strain Ellen (NIH). Highly infective virus stocks of HSV-1 and HSV-2 were prepared by infecting a confluent monolayer of HEp-2 (ATCC) or HFF in 150 cm^2 plastic tissue culture flasks (Falcon, USA) at a multiplicity of infection of 0.5 in DMEM supplemented with 10% inactivated fetal calf serum and 1% penicillin/streptomycin at 37° C. in the presence of 5% CO2. The infected cells were disrupted through three freeze/thaw cycles, and viruses were clarified from large cell debris by low speed centrifugation at 3000 rpm for 10 minutes. The virus suspension was separated, aliquoted and stored at −80° C. until assayed or used for animal infection. The stock HSV-1 (E377) and HSV-2 (MS strain) contained 3.5×10^8 and 1.1×10^7 pfu/ml respectively.
(§4) Low passage HFF cells were seeded into 96-well tissue culture plates 24 hours prior to use at a cell concentration of 2.5×10^4 cells per ml in 0.2 ml of DMEM supplemented with 10% fetal calf serum. After 24 hours of incubation at 37° C. in the presence of 5% CO2, medium was removed and the test compounds were diluted two-fold in DMEM in the 96-well tissue culture plate containing monolayer. […] For both HSV-1 and HSV-2 assays, the virus concentration utilized was 1000 pfu/ml and for HCMV, MCMV, and VZV assay 2500 pfu/ml were used. The plates were then incubated at 37° C. in the presence of 5% CO2 for two to three days for HSV-1 and HSV-2, 10 days for VZV and 14 days for HCMV and MCMV. The virus induced cytopathic effect (CPE) was monitored microscopically every day. CPE of HSV-1 was recognized by cell rounding and clumping, while HSV-2 formed large syncytia along with rounding and clumping of cells. […] EC50s were estimated from graphical plots of percent CPE against the concentration of the test compounds. The EC50s for each compound are the mean of EC50s for three or more independent experiments. After three days of incubation period, media was aspirated and the cells stained with a 0.1% crystal violet solution for 30 minutes. The stain was then removed and the plates were rinsed with tap water, air dried and retained.

[1] = tested on: Primary Rabbit Kidney cells; test: Cytotoxic effect in primary rabbit kidney cells; assay type: cell-based; settings: primary rabbit kidney cells
Procedure: as §2, with “Primary human foreskin fibroblast cells (HFF) obtained from Dr. E. R. Kern (Department of Pediatrics, University of Alabama Medical School, 309 Bevill Biomedical Research Building, 845 19th Street South, Birmingham, Ala., 35294-2170), were used for cytopathic effect (CPE) inhibition assay.” left out
(§5) HFF, Vero and HEp-2 cells were seeded in 24-well tissue culture plates at a concentration of […] in DMEM containing 10% FCS and incubated for 24 hours at 37° C. in the presence of 5% CO2. To the monolayer of these cells 0.5, 1.0, 1.5 and 2.0 ml of solution of antiviral compounds were added in the respective wells in duplicate and the cells were then incubated in a 5% CO2 incubator at 37° C. for 72 hours. The cells were observed daily for any change in morphology. […] At the end of this time, the media-drug solution was removed and the cells washed. One ml of 0.25% trypsin was added to each well and incubated until the cells start to come off of the plate. The cells-media mixture was then pipetted up and down several times to resuspend the cells and 0.2 ml of the cell suspension was added to 9.8 ml of trypan blue and cells were counted using hemocytometer. Each sample was counted three times with three replicate wells per sample.

[2] = Cytotoxic effect in primary rabbit kidney cells; assay type: cell-based; settings: primary rabbit kidney cells; Primary Rabbit Kidney cell line
Procedure: as §2, with “Primary human foreskin fibroblast cells (HFF) obtained from Dr. E. R. Kern (Department of Pediatrics, University of Alabama Medical School, 309 Bevill Biomedical Research Building, 845 19th Street South, Birmingham, Ala., 35294-2170), were used for cytopathic effect (CPE) inhibition assay.” left out
as §5

HSV-1 strain E-377 = test: CPE inhibition assay, HSV-1 E377 in human foreskin fibroblast cells; assay type: cell-based, herpes simplex virus type 1; on Qualitative CPE at 2.0 ml dose HSV-1 E377: key: +++ = Complete cytopathic effect; ++ = Moderate cytopathic effect; + = Minimum cytopathic effect; − = No cytopathic effect
Procedure: as §1, §2, §3, §4

[3] = tested on: Primary human foreskin fibroblast cells (HFF); test: Cell proliferation assay (cytotoxicity) in HFF cells; assay type: cell-based; settings: HFF cells; solution conc. per compound (ng/ml) (Acyclovir 250); 2.0 ml dose
Procedure: as §2, with “Primary human foreskin fibroblast cells (HFF) obtained from Dr. E. R. Kern (Department of Pediatrics, University of Alabama Medical School, 309 Bevill Biomedical Research Building, 845 19th Street South, Birmingham, Ala., 35294-2170), were used for cytopathic effect (CPE) inhibition assay.” left out
as §5

[4] = as above; assay type: cell-based, human; settings: primary human foreskin fibroblast (HFF) cells; Human foreskin fibroblast cells; reduces growth of uninfected cells by 50%
Procedure: as §2, with “Primary human foreskin fibroblast cells (HFF) obtained from Dr. E. R. Kern (Department of Pediatrics, University of Alabama Medical School, 309 Bevill Biomedical Research Building, 845 19th Street South, Birmingham, Ala., 35294-2170), were used for cytopathic effect (CPE) inhibition assay.” left out
as §5

HSV-2 strain G = test: CPE inhibition, HSV-2 strain G in HEp-2 cells; further: key: +++ = Complete cytopathic effect; ++ = Moderate cytopathic effect; + = Minimum cytopathic effect; − = No cytopathic effect; assay type: cell-based, herpes simplex virus type 2; settings: conc. per compound (ng/ml)
Excerpt: as §2, §3, §4

[5] = tested on: Human laryngeal epithelial carcinoma cells (HEp-2); test: Cytotoxicity in HEp-2 cells; assay type: cell-based
Procedure: as §2, with “Primary human foreskin fibroblast cells (HFF) obtained from Dr. E. R. Kern (Department of Pediatrics, University of Alabama Medical School, 309 Bevill Biomedical Research Building, 845 19th Street South, Birmingham, Ala., 35294-2170), were used for cytopathic effect (CPE) inhibition assay.” left out
as §5

Vero cells = test: Cytotoxic effect in Vero cell line; assay type: cell-based, African green monkey; settings: African green monkey kidney (Vero) cells
Procedure: as §2, with “Primary human foreskin fibroblast cells (HFF) obtained from Dr. E. R. Kern (Department of Pediatrics, University of Alabama Medical School, 309 Bevill Biomedical Research Building, 845 19th Street South, Birmingham, Ala., 35294-2170), were used for cytopathic effect (CPE) inhibition assay.” left out
as §5

[6] = Cytotoxic effect in Vero cell line; assay type: cell-based, African green monkey; settings: African green monkey, Vero cells; Vero cell line
Procedure: as §2, with “Primary human foreskin fibroblast cells (HFF) obtained from Dr. E. R. Kern (Department of Pediatrics, University of Alabama Medical School, 309 Bevill Biomedical Research Building, 845 19th Street South, Birmingham, Ala., 35294-2170), were used for cytopathic effect (CPE) inhibition assay.” left out
as §5

HSV-2 (strain G) = test: Plaque reduction assay, HSV-2 strain G in HEp-2 cells; assay type: cell-based, herpes simplex virus type 2; settings: conc. per compound (ng/ml) (Acyclovir 250), HSV-2 virus control 47
Procedure: HEp-2 cells were grown to monolayer in 24 well tissue culture plates in DMEM containing 10% fetal calf serum at 37° C. for 24-36 hours in the presence of 5% CO2. The monolayer of HEp-2 cells was infected with 0.1 ml of HSV- 1 (strain F) or HSV-2 (strain G) containing 100 pfu. The viruses were allowed to adsorb for 1 hour at 37° C. in the presence of 5% CO2. All wells containing virus infected cells except virus control were overlaid with 0.9 ml of DMEM and 1 ml of test compound. The virus control and cell control received DMEM only. All microtiter plates were incubated at 37° C. in the presence of 5% CO2 and observed twice daily for 72 hours for viral CPE. At the end of the experiment, plates were stained with 0.1% crystal violet and the results were quantified by counting plaque forming units.

HSV-1 strain F = test: CPE inhibition, HSV-1 strain F in HEp-2 cells; further: key: +++ = Complete cytopathic effect; ++ = Moderate cytopathic effect; + = Minimum cytopathic effect; − = No cytopathic effect; assay type: cell-based, herpes simplex virus type 1; settings: conc. per compound (ng/ml)
Excerpt: as §2, §3, §4

[7] = HFF cells, solution conc. per compound (ng/ml) (Acyclovir 250), 2.0 ml dose

Question: With `CC1(C)CCC23CC[C@]4(C)C(CCC5[C@@]6(C)CCC(O)C(C)(C)C6CC[C@]54C)C2C1OC3` (stereo partly drawn) [Allobetulin, 3β-hydroxy-19αH-19,28-epoxy-oleanane] as the compound, how does the “EC50 HSV-2 MS” value (HSV-2 strain MS; CPE inhibition in HFF cells) read?
Answer: 225 ng/mL (≈ 0.508 µM)

Question: And the “Qualitative CPE at 2.0 ml dose HSV-2 MS” value (HSV-2 strain MS; [7])?
Answer: ++

Question: What about the EC50 (HSV-2 strain MS; Human alphaherpesvirus 2, HFF, CPE inhibition in HFF cells, read-out: EC50 HSV-2 MS) of the same compound?
Answer: ~0.225 µg/mL (≈ 0.508 µM)

Question: And the “cytotoxicity (in words)” value [1]?
Answer: No cytotoxicity; also recorded: generally not toxic

Question: What about the CC50 at 72 h [2] of the same compound?
Answer: > 0.3 µg/mL

Question: And the “EC50 HSV-1 E377” value (HSV-1 strain E-377; CPE inhibition in HFF cells)?
Answer: 300 ng/mL (≈ 0.678 µM)

Question: What about the “Qualitative CPE at 2.0 ml dose HSV-1 E377” value (HSV-1 strain E-377; [7]) of the same compound?
Answer: +++

Question: And the EC50 (HSV-1 strain E-377; Human alphaherpesvirus 1, HFF, CPE inhibition in HFF cells, read-out: EC50 HSV-1 E377)?
Answer: ~0.3 µg/mL (≈ 0.678 µM)

Question: What about the “Qualitative Cytotoxic Effect at 2.0 ml dose” value [3] of the same compound?
Answer: −

Question: And the CC50 at 72 h [4]?
Answer: 0.3 µg/mL (≈ 0.678 µM)

Question: And the “Cytopathic Effect (CPE) Inhibition HSV-2 Strain G” value (HSV-2 strain G)?
Answer: ++

Question: What about the “cytotoxicity (in words)” value ([5]; HEp-2 (human epithelial) cells) of the same compound?
Answer: less cytotoxicity; also recorded: generally not toxic

Question: What about the “Cell Cytotoxicity” value ([5]; HEp-2 cells, conc. per compound (ng/ml)) of the same compound?
Answer: −

Question: And the “cytotoxicity (in words)” value (Vero cells)?
Answer: generally not toxic

Question: What about the CC50 at 72 h [6] of the same compound?
Answer: 0.3 µg/mL (≈ 0.678 µM)

Question: What about the “Plaque Reduction Assay Average pfu/10^5 Cells HSV-2 Strain G” value (HSV-2 (strain G)) of the same compound?
Answer: 17 pfu/10^5 Cells

Question: And the “Cytopathic Effect (CPE) Inhibition HSV-1 Strain F” value (HSV-1 strain F)?
Answer: ++
